Data: patent US11365188B2, “JAK inhibitors” (priority 2018, dated 2022)

Legend:
Type in all cases: biochemical
JAK1 = JAK1 (Homo sapiens, UniProt P23458); experiment: JAK Kinase Assay (JAK1, Caliper EZ Reader, fluoresceinated peptide); settings: ATP 76.5 μM; JAK1 10 nM; 120 minutes at room temperature; read-out: JAK1 inhibition
JAK3 = target: T1, JAK3 (Homo sapiens, UniProt P52333); experiment: JAK3 Assay (Caliper EZ Reader, fluoresceinated peptide); settings: ATP 3.5 μM; JAK3 0.5 nM; 30 minutes at room temperature; read-out: JAK3 inhibition
T1 sequence (P52333 1-1124): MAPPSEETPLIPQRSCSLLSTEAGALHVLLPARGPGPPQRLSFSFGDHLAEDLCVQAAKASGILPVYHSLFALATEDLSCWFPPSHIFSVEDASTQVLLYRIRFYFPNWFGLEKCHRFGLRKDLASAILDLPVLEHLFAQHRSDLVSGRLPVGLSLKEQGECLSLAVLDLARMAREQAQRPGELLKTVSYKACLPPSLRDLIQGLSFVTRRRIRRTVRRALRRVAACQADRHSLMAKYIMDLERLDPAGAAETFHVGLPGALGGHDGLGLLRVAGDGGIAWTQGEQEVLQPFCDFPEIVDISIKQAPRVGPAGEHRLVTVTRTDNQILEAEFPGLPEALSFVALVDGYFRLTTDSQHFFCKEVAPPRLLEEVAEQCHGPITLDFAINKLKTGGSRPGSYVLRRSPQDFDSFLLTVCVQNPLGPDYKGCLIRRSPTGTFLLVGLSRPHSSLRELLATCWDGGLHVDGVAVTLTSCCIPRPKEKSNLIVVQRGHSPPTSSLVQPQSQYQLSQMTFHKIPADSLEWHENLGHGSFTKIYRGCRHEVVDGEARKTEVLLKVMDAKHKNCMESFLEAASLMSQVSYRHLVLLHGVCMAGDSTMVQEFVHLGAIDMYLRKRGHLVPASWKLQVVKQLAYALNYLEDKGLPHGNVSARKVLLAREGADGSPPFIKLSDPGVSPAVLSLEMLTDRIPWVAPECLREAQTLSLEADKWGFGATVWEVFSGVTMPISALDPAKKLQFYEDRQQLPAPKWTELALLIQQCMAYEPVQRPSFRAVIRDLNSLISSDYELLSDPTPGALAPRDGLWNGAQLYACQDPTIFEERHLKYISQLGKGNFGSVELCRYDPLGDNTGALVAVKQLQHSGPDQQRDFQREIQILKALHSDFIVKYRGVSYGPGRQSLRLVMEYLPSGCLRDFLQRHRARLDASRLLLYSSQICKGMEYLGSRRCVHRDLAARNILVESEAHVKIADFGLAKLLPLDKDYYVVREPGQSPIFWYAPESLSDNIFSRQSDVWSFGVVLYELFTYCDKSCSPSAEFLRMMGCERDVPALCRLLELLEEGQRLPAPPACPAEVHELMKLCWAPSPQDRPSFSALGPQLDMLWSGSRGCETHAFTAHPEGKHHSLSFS

TYK2 = TYK2 (Homo sapiens, UniProt P29597); experiment: TYK2 Assay (Caliper EZ Reader, fluoresceinated peptide); settings: ATP 35.4 μM; TYK2 10 nM; 10 minutes at room temperature; read-out: TYK2 inhibition
Sequence of TYK2 (P29597 whole entry, species assumed): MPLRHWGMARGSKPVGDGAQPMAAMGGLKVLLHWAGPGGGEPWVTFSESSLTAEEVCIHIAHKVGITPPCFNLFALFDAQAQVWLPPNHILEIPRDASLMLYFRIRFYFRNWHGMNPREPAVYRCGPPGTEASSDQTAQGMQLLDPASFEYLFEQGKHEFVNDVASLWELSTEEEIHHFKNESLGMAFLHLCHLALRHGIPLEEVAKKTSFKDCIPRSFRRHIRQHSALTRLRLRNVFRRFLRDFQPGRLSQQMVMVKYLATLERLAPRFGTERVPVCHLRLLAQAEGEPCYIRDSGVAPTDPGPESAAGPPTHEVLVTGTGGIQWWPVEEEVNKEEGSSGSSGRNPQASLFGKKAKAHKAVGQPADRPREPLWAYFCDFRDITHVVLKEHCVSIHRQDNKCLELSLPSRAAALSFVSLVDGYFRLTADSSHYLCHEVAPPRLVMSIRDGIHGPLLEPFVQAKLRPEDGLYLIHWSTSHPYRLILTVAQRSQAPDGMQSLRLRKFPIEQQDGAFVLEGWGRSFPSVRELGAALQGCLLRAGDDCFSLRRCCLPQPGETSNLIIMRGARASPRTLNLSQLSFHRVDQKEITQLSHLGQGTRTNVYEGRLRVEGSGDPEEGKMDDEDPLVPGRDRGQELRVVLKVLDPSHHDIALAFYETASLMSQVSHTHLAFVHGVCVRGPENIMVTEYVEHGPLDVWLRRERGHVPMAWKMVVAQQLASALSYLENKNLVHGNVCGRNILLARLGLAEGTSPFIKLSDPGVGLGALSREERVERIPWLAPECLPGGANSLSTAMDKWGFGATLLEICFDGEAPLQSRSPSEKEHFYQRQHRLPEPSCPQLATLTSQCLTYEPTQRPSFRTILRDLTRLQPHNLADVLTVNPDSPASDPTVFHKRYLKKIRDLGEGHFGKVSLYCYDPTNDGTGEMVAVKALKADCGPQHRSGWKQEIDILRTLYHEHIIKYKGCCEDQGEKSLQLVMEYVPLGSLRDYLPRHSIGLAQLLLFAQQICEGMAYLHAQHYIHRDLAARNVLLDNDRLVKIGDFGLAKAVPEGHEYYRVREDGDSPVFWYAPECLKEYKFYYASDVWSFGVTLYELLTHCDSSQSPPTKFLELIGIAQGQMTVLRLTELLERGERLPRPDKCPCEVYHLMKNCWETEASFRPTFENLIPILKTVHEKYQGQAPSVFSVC
Procedure: 384-well plates in the left foot butoxy measured progress. The final assay volume was 25 μL, 250 nL 100× compounds, 10 μL enzyme mix and 15 μL substrate mix (fluoresceinated peptide and ATP) in assay buffer (50 mM HEPES (pH 7.5), 10 mM MgCl2, 0.01% TritonX-100, 0.01% Brij35, 0.5 mM EGTA and 2 mM DTT) prepared as test compound. B mixing the TYK2 with substrates and test compounds to start the reaction. The reaction mixture was incubated for 10 minutes at room temperature, then added 30 μL stop buffer for each sample to terminate the reaction with 50 mM EDTA. After termination of the kinase reaction, the proportion of phosphorylated product was determined as a fraction of total peptide substrate using Caliper EZ Reader 1. Inhibition data were calculated by comparison with 100% of the reaction mixture without enzyme inhibition and vehicle-only reaction mixture billion % inhibition compared. The final concentration of reagents in the assays is: ATP, 35.4 μM; TYK2 fluorescent peptide (5-FAM-KKKKEEIYFFF-CONH2), 3 μM; TYK2, 10 nM; and DMSO, 1% Dose response curve were generated to determine the concentration required for IC50 of TYK2 activity.

JAK2 = JAK2 (Homo sapiens, UniProt O60674); experiment: JAK2 Assay (Caliper EZ Reader, fluoresceinated peptide); settings: ATP 11.4 μM; JAK2 0.25 nM; 15 minutes at room temperature; read-out: JAK2 inhibition
Sequence of JAK2 (O60674 whole entry, species assumed): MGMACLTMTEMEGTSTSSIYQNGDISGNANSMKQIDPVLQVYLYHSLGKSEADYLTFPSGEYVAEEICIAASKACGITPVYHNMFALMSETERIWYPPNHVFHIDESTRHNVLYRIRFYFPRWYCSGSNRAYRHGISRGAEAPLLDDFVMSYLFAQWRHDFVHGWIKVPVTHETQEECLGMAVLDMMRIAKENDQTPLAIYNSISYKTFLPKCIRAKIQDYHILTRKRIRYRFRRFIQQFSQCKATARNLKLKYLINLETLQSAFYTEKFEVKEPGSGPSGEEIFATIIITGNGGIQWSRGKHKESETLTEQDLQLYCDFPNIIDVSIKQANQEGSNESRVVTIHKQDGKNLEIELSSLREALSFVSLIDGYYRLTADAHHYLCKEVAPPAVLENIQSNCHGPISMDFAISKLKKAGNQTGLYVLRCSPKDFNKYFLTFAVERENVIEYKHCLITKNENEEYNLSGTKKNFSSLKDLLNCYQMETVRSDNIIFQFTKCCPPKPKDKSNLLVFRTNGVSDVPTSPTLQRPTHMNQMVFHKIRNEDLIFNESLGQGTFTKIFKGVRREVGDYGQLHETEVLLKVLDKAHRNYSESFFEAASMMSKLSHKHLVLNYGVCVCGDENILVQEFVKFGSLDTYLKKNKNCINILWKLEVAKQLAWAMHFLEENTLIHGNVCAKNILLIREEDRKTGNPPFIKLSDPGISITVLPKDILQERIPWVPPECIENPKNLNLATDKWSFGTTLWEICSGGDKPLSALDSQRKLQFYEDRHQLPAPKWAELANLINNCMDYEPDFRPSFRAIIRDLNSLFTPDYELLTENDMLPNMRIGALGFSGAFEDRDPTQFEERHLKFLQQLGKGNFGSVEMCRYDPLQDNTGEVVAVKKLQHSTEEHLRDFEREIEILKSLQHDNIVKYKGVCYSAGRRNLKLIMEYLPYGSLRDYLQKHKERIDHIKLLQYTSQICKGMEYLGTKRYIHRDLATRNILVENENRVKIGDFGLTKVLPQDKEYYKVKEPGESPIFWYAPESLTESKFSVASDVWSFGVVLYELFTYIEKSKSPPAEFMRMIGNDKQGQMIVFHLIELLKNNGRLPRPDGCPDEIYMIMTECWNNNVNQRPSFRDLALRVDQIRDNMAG

Sequence of JAK1 (P23458 whole entry, species assumed): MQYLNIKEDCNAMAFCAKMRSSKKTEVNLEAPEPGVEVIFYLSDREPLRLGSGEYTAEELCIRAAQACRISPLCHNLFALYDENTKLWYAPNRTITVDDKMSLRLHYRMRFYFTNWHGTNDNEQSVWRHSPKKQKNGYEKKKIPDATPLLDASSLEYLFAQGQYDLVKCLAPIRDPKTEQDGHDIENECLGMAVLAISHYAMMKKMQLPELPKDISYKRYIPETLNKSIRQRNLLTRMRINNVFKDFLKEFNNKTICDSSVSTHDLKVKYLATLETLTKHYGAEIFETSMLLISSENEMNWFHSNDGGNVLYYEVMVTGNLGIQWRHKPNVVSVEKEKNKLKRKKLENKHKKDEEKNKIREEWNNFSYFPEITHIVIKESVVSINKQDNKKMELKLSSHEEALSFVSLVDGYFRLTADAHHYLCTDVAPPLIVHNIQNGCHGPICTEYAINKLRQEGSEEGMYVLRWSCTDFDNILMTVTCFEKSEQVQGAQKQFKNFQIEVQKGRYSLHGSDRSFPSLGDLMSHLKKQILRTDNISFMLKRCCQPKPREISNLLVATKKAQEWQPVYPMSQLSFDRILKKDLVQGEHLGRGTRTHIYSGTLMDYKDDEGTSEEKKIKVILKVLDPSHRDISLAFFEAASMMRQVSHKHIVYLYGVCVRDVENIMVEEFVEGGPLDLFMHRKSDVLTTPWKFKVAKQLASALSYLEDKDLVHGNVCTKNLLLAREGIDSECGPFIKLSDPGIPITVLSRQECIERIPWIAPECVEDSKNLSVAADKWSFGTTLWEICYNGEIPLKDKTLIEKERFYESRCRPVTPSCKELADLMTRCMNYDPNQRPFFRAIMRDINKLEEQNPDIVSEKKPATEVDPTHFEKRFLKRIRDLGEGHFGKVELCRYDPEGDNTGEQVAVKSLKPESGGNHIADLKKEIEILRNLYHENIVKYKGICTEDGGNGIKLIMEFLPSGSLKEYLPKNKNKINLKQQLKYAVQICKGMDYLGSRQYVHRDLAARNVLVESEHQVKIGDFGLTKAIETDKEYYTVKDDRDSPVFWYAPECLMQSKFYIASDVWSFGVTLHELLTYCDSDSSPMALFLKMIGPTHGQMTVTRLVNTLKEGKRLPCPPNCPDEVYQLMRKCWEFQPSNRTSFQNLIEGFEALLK

| SMILES | IC50 (JAK1) [µM] | IC50 (JAK3) [µM] | IC50 (TYK2) [µM] | IC50 (JAK2) [µM] |
| --- | --- | --- | --- | --- |
| CN(c1ncnc2[nH]ccc12)C1CC2(C1)CN(C(=O)Nc1cccc(Cl)c1)C2 [Compound 33, N-(3-chlorophenyl)-6-(methyl(7H-pyrrolo[2,3-d]pyrimidin-4-yl)amino)-2-azaspiro[3.3]heptane-2-carboxamide] | 0.1 to 1 | ≥ 10 | ≥ 10 | 1 to 10 |
| CN(c1ncnc2[nH]ccc12)C1CC2(C1)CN(C(=O)c1ccc(C#N)c(F)c1F)C2 [Compound 53, 2,3-difluoro-4-(6-(methyl(7H-pyrrolo[2,3-d]pyrimidin-4-yl)amino)-2-azaspiro[3.3]heptane-2-carbonyl)benzonitrile] | ≤ 0.01 | 1 to 10 | 1 to 10 | 0.1 to 1 |
